Paper PMC12047801, “Disrupting the OTUD4-USP7 deubiquitinase complex to suppress herpesvirus replication: a novel antiviral strategy” (PLOS Pathogens, 2025)
Values joined by “and” are separate entries in the source; they are usually repeats but may differ in a detail not shown here. Equal entries are not always repeated. Where two headings read alike, the source gives them in different places. Where a SMILES comes first, the peptide text is derived from it.

Experiments:
[1] = target: T1, USP7-TRAF domain (Homo sapiens, UniProt Q93009); assay: Surface plasmon resonance (SPR) analysis of peptide binding to USP7-TRAF
T1 construct: The TRAF domain of human and murine USP7 (1-208 aa) was subcloned into pGEX-6p-1; GST (N); made in house; host or cells: E. coli BL21 (DE3)

[2] = test system: KSHV lytic reactivation in SLK.iBAC-GFP cells; format: cell-based; settings: for IC50: Dox + sodium butyrate, mean ± s.d. of N = 3
Protocol: (A) Graphical illustration showing the rationale underlying our peptide design. (B) Surface Plasmon Resonance (SPR) analysis assessing the interaction of the USP7-TRAF domain with the designed peptides p2 and p8. (C) SLK.iBAC-GFP cells were induced with doxycycline (Dox, 1 μg/mL) and sodium butyrate (0.5 mM) in the presence of the Tat fusion peptides (100 μM). All the peptides were fused to an N-terminal Tat47-57 peptide ([…]) via a flexible GG linker. The supernatants containing infectious virions were collected 48 h post-induction and used to infect HEK293T cells. KSHV infectious units were calculated based on the percentage of GFP-positive cells determined by flow cytometry. Data are mean ± s.d. of N = 3 independent biological replicates. (D) SLK.iBAC-GFP cells were induced with doxycycline (Dox, 1 μg/mL) and sodium butyrate (0.5 mM) in the presence of increasing amount of p8 (0, 10, 50, 100 μM). KSHV infectious units were determined 48 h post-induction. Data are mean ± s.d. of N = 3 independent biological replicates. […] Data are mean ± s.d. of N = 3 independent biological replicates. […] Cell viability was assessed by measuring ATP levels 48 h post-induction. Data are mean ± s.d. of N = 3 independent biological replicates.
Peptides p1 to p12 (S1A Fig) were synthesized by Sangon Biotech (Shanghai, China) with 95% purity. The Tat-fused peptides in Fig 1C consisted of the corresponding peptides conjugated to the Tat47-57 peptide ([…]) and two glycine linker residues (QYAOBIO, Suzhou, China). The peptides p8-DRI (nssqsasqnvpprrrqrrkkrGy) and p2-DRI (iesndedavepprrrqrrkkrGy) were synthesized using D-amino acids in a retro-reversed sequence with 95% purity (QYAOBIO, Suzhou, China). The peptide p8-m ([…]) was synthesized with 95% purity (QYAOBIO, Suzhou, China). All the peptides were acetylated at the N-terminus and amidated at the C-terminus to mimic the native peptide structure. The peptides were dissolved in PBS to prepare 1 mM stock solutions for in vitro experiments and 5 mg/ml stock solutions for in vivo experiments.
SLK.iBAC-GFP cells were treated with Dox (1 μg/ml) and sodium butyrate (0.5 mM) to induce lytic reactivation in the presence of indicated peptides (100 μM). The supernatants were collected at the specified time points and used to infect HEK293T cells at appropriate dilutions. The infected cells were collected, fixed, and analyzed by flow cytometry 24 h post-infection. FlowJo 10.0 software was used to analyze the data, and KSHV infectious units were quantified based on the percentage of GFP-positive cells.

[3] = test system: MHV68 in C57BL/6 mice; assay: Viral loads/titers in lungs of MHV68-infected C57BL/6 mice; format: in vivo; settings: 5 days post-infection
[4] = test system: MHV68 in C57BL/6 mice; format: in vivo; settings: Fig 5E, 5 mg/kg, 5 days post-infection
Protocol: (§1) Fig 5 P8-DRI restricts MHV68 Infection in vivo. (A-B) MLF cells were infected with MHV68 (MOI, 0.01) and treated with the indicated peptides (100 µM). Viral titer was determined by plaque assays 48 h post-infection (A). Viral gene expression was assessed by RT-qPCR (B). Data are mean ± s.d. of N = 3 independent biological replicates. […] Data are mean ± s.d. of N = 3 independent biological replicates. (D-E) C57BL/6 mice were intranasally inoculated with MHV68 (4000 PFU) and administrated with p8-DRI (5 mg/kg of body weight) or vehicle control (n = 6 per group). Viral loads in lung tissues were quantified at 5 days post-infection (D). Viral gene expression in lung tissues was measured by RT-qPCR at 5 days post-infection (E). Data are mean ± s.d. of N = 6 independent biological replicates. (F) H&E staining of lung tissue sections from MHV68-infected mice treated with p8-DRI or vehicle 5 days post-infection. Scale bars, 500 µm (left) and 100 µm (right). […] Viral titers in lung tissues were determined at 5 days post-infection (G). Viral gene expression in lung tissues was assessed by RT-qPCR (H). […] (I) H&E staining of lung tissue sections from MHV68-infected Otud4^^fl/fl Cre-ERT2^-/- and Otud4^^fl/fl Cre-ERT2^+/- mice treated with p8-DRI or vehicle control, analyzed at 5 days post-infection. […]

[5] = test system: lung inflammation in MHV68-infected C57BL/6 mice; format: in vivo; settings: Fig 5F, 5 mg/kg, 5 days post-infection, vs vehicle
Protocol: as §1, with “replicates.” for “replicates. (F) H&E staining of lung tissue sections from MHV68-infected mice treated with p8-DRI or vehicle 5 days post-infection. Scale bars, 500 µm (left) and 100 µm (right).”
Mouse lung tissue samples were fixed in 10% formalin solution (Sigma) overnight. […] The tissue sections were stained using standard H&E staining protocols and analyzed microscopically.

[6] = test system: MHV68 in Otud4fl/fl Cre-ERT2 mice; format: in vivo; settings: 5 mg/kg
[7] = test system: lung pathology in MHV68-infected Otud4fl/fl Cre-ERT2 mice; format: in vivo; settings: for Histological score of lungs: Fig. 5I
[8] = test system: interaction between OTUD4 and USP7-TRAF; assay: GST pull-down competition assay, human USP7-TRAF and FLAG-OTUD4; format: binding; settings: 100 μM, 4 h
[9] = test system: KSHV lytic replication; settings: cited from earlier work
From the text: In KSHV-associated cancers, such as Kaposi’s sarcoma (KS), tumor cells predominantly display latent viral infection, while spontaneous reactivation takes place in only 1–3% of infected cells. […] Despite the low percentage of lytic cells, lytic replication plays a critical role in KS pathogenesis. Firstly, the production and release of infectious KSHV particles sustain the latently infected cell population by compensating for episomal loss duri ... || KSHV is the etiological agent of Kaposi’s sarcoma (KS) and primary effusion lymphoma (PEL), and contributes to other malignancies such as multicentric Castleman’s disease (MCD). […] Therefore, KSHV antiviral treatments, including those aimed at inhibiting lytic replication, are actively being developed. […] MMV1645152, identified from the Medicines for Malaria Venture (MMV) Pandemi ...

[10] = test system: Kaposi's sarcoma (KS) progression; settings: cited from earlier work

T1 sequence (Q93009 1-208): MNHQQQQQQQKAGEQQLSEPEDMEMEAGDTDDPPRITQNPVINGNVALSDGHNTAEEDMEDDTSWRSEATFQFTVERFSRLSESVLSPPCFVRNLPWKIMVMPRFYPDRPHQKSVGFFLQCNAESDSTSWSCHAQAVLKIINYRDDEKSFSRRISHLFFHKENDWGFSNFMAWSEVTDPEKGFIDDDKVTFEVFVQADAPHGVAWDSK

CC(=O)N[C@H](CC(N)=O)C(=O)N[C@H](CO)C(=O)N[C@H](CO)C(=O)N[C@H](CCC(N)=O)C(=O)N[C@H](CO)C(=O)N[C@H](C)C(=O)N[C@H](CO)C(=O)N[C@H](CCC(N)=O)C(=O)N[C@H](CC(N)=O)C(=O)N[C@@H](C(=O)N1CCC[C@@H]1C(=O)N1CCC[C@@H]1C(=O)N[C@H](CCCNC(=N)N)C(=O)N[C@H](CCCNC(=N)N)C(=O)N[C@H](CCCNC(=N)N)C(=O)N[C@H](CCC(N)=O)C(=O)N[C@H](CCCNC(=N)N)C(=O)N[C@H](CCCNC(=N)N)C(=O)N[C@H](CCCCN)C(=O)N[C@H](CCCCN)C(=O)N[C@H](CCCNC(=N)N)C(=O)NCC(=O)N[C@H](Cc1ccc(O)cc1)C(N)=O)C(C)C [p8-DRI] (HELM PEPTIDE1{[ac].[dN].[dS].[dS].[dQ].[dS].[dA].[dS].[dQ].[dN].[dV].[dP].[dP].[dR].[dR].[dR].[dQ].[dR].[dR].[dK].[dK].[dR].G.[dY].[am]}$$$$V2.0)
Binding affinity for USP7-TRAF relative to p8 (in words) ([1]; N = 3 (S5H Fig)): remained comparable to that of p8 | IC50 ([2]; SLK.iBAC-GFP cells): 9.23 ± 1.29 µM | Viral titers in lung tissues (in words) ([3]; Fig 5D, 5 mg/kg, vs vehicle): lower viral titers in lung tissues | Viral loads in lung tissues ([3]; Fig. 5D, 5 mg/kg p8-DRI, MHV68 4000 PFU intranasal, single animals, one line per mouse (n = 6)): 12.8424 and 18.8481 and 2.1041 and 7.7972 and 13.617 and 0.6389 | MHV68 viral gene transcription (ORF50, ORF9, ORF25) in lungs (in words) [4]: significantly reduced | Lung inflammation and immune cell infiltration (in words) [5]: less inflammation and immune cell infiltration in the lungs | Antiviral effect in OTUD4-deficient mice (in words) ([6]; Figs 5G-5I, Otud4fl/fl Cre-ERT2+/- + tamoxifen): abolished in OTUD4-deficient mice | Viral titers in lungs of OTUD4-replete mice (in words) ([6]; Otud4fl/fl Cre-ERT2-/-, vs vehicle): lower viral titers in lung tissues | Histological score of lungs ([7]; OTUD4 KO mice, replicate 1): 1 | Histological score of lungs ([7]; OTUD4 KO mice, replicate 2): 1 | Histological score of lungs ([7]; OTUD4 KO mice, replicate 3): 1 | Histological score of lungs ([7]; OTUD4 KO mice, replicate 4): 2 | Histological score of lungs ([7]; OTUD4 KO mice, replicate 5): 3 | Histological score of lungs ([7]; OTUD4 WT mice, replicate 1): 1 | Histological score of lungs ([7]; OTUD4 WT mice, replicate 2): 1 | Histological score of lungs ([7]; OTUD4 WT mice, replicate 3): 1 | Histological score of lungs ([7]; OTUD4 WT mice, replicate 4): 2 | Histological score of lungs ([7]; OTUD4 WT mice, replicate 5): 3 | Viral pathology in OTUD4-replete mice (in words) ([7]; Otud4fl/fl Cre-ERT2-/-, 5 mg/kg, vs vehicle): reduced viral pathology

Ac-YGRKKRRQRRRGGEVADEDNSEI-NH2 [p2]
Binding to the USP7-TRAF domain (in words) [1]: specifically bound to the USP7-TRAF domain | IC50, KSHV lytic reactivation (in words) ([2]; SLK.iBAC-GFP cells, Tat-fused peptide): could not be determined due to its low antiviral activity | Inhibition of KSHV lytic reactivation (in words) ([2]; Tat-fused peptides, 100 μM or dose series, 48 h post-induction): no significant inhibition | Disruption of OTUD4/USP7-TRAF interaction (in words) [8]: failed to disrupt the interaction between USP7-TRAF and OTUD4

CCc1cc(-c2n[nH]c(C)c2-c2ccc3c(c2)OCCO3)c(O)cc1O [CCT018159]
Inhibition of KSHV lytic replication and virion production (in words) ([9]; UAP56 ATPase inhibitor): successfully blocks KSHV lytic replication and infectious virion production

Nc1nc(O)c(Br)c(-c2cccc(Cl)c2)n1 [MMV1645152]
Inhibition of KSHV lytic replication (in words) [9]: effectively blocking KSHV lytic replication

CC[C@@H](C)[C@@H](NC(C)=O)C(=O)N[C@H](CCC(=O)O)C(=O)N[C@H](CO)C(=O)N[C@H](CC(N)=O)C(=O)N[C@H](CC(=O)O)C(=O)N[C@H](CCC(=O)O)C(=O)N[C@H](CC(=O)O)C(=O)N[C@H](C)C(=O)N[C@@H](C(=O)N[C@H](CCC(=O)O)C(=O)N1CCC[C@@H]1C(=O)N1CCC[C@@H]1C(=O)N[C@H](CCCNC(=N)N)C(=O)N[C@H](CCCNC(=N)N)C(=O)N[C@H](CCCNC(=N)N)C(=O)N[C@H](CCC(N)=O)C(=O)N[C@H](CCCNC(=N)N)C(=O)N[C@H](CCCNC(=N)N)C(=O)N[C@H](CCCCN)C(=O)N[C@H](CCCCN)C(=O)N[C@H](CCCNC(=N)N)C(=O)NCC(=O)N[C@H](Cc1ccc(O)cc1)C(N)=O)C(C)C [p2-DRI] (HELM PEPTIDE1{[ac].[dI].[dE].[dS].[dN].[dD].[dE].[dD].[dA].[dV].[dE].[dP].[dP].[dR].[dR].[dR].[dQ].[dR].[dR].[dK].[dK].[dR].G.[dY].[am]}$$$$V2.0)
IC50 ([2]; SLK.iBAC-GFP cells): 67.4 ± 34.1 µM

Cc1c(O)cccc1C(=O)N[C@@H](CSc1ccccc1)[C@H](O)CN1C[C@H]2CCCC[C@H]2C[C@H]1C(=O)NC(C)(C)C [Nelfinavir]
Inhibition of KSHV virion production (in words) [9]: prevents mature virion production

Nc1nc(O)c2ncn(COC(CO)CO)c2n1 [Ganciclovir]
Inhibition of KSHV lytic replication (in words) ([9]; nucleoside analogue): inhibits KSHV lytic replication | Prevention of KS progression (in words) [10]: remarkable efficacy in randomized clinical trials for preventing KS progression
